Measured values: patent US10005768B2, “Carboxamide derivatives and use thereof” (Purdue Pharma L.P., priority 2013, dated 2018)

Target: human Nav1.7 (Homo sapiens (Human), UniProt Q15858)
Assay: FLIPR membrane potential dye assay (alternative fluorescence assay)
Type: cell-based
Settings: recombinant Nav1.7/HEK293 cells
Method: In vitro assays were performed in a recombinant cell line expressing cDNA encoding the alpha subunit (Nav1.7, SCN9a, PN1, NE) of human Nav1.7 (Accession No. NM_002977). The cell line was provided by investigators at Yale University (Cummins et al, J. Neurosci. 18(23): 9607-9619 (1998)). For dominant selection of the Nav1.7-expressing clones, the expression plasmid co-expressed the neomycin resistance gene. The cell line was constructed in the human embryonic kidney cell line, HEK293, under the influence of the CMV […] promoter, and stable clones were selected using limiting dilution cloning and antibiotic selection using the neomycin analogue, G418. Recombinant beta and gamma subunits were not introduced into this cell line. Additional cell lines expressing recombinant Nav1.7 cloned from other species can also be used, alone or in combination with various beta subunits, gamma subunits or chaperones.
A fluorescence indicator that can be used in alternative fluorescence assays is the blue version membrane potential dye (MDS, Molecular Devices, Sunnyvale, Calif.), a dye that detects changes in molecules following a change in membrane potential. An increase in fluorescence is expected if agonist stimulation provokes a change in membrane potential. Cells expressing Nav1.7 or other sodium channels are incubated with the membrane potential dye 30-60 minutes before the fluorescence assay. In the case of the KCl pre-stimulation version of the assay, the dye and all other components are washed out immediately before the assay, and the dye is then replaced. In the version lacking KCl pre-stimulation, the dye remains on the cells and is not washed out or replaced. The dye is stored in the dark as a lyophilized powder, and then an aliquot dissolved in assay buffer to form a 20×-concentrated stock solution that can be used for several weeks.
In the fluorescence assays, two agonists were used in combination, namely 1) veratridine; and 2) the venom from the yellow scorpion, Leiurus quinquestriatus hebraeus. Veratridine is an alkaloid small molecule that facilitates the capture of channel openings by inhibiting inactivation, and the scorpion venom is a natural preparation that includes peptide toxins selective for different subsets of voltage-gated sodium channels. These scorpion toxins inhibit the fast inactivation of their cognate target channels. Stock solutions of the agonists were prepared to 40 mM in DMSO (veratridine) and 1 mg/mL in dH2O (scorpion venom), and then diluted to make a 4× or 2× stock (depending on the particular assay) in assay buffer, the final concentration being 100 μM (veratridine) and 10 μg/mL (scorpion venom). Both of the agonists were purchased from Sigma Aldrich, St. Louis, Mo.
Test compounds were dissolved in DMSO to yield 10 mM stock solutions. The stock solutions were further diluted using DMSO in 1:3 serial dilution steps with 10 points (10,000 μM, […], 370 μM, 123 μM, 41 μM, 14 μM, 4.6 μM, 1.5 μM and 0.5 μM). The stock solutions were further diluted in assay buffer (1:125) as 4× stock serial dilutions with a DMSO concentration of 0.8% (final [DMSO], in the assay, from the compounds component=0.2%), so that the compounds' final concentrations in the assay were 20 μM, 6.7 μM, 2.2 μM, 0.74 μM, 0.25 μM and 0.08 μM, 0.03 μM, 0.01 μM, 0.003 μM and 0.001 μM. If a particular test article appeared to be especially potent, then the concentration curve was adjusted, e.g., to 10-fold lower concentrations, in order to perform the dose-response in a more relevant concentration range. Compound dilutions were added during the dye-loading and pre-stimulation step, and then again during the fluorescence assay, early in the kinetic read.
The data were analyzed according to methods known to those skilled in the art or using the GraphPad® Prism Program, version 4.0 or higher (available from GraphPad Software, San Diego, Calif.) to determine the IC50 value for the test article. […]

human Nav1.7, sequence (Q15858 other isoform, or with tags, fused parts or gaps): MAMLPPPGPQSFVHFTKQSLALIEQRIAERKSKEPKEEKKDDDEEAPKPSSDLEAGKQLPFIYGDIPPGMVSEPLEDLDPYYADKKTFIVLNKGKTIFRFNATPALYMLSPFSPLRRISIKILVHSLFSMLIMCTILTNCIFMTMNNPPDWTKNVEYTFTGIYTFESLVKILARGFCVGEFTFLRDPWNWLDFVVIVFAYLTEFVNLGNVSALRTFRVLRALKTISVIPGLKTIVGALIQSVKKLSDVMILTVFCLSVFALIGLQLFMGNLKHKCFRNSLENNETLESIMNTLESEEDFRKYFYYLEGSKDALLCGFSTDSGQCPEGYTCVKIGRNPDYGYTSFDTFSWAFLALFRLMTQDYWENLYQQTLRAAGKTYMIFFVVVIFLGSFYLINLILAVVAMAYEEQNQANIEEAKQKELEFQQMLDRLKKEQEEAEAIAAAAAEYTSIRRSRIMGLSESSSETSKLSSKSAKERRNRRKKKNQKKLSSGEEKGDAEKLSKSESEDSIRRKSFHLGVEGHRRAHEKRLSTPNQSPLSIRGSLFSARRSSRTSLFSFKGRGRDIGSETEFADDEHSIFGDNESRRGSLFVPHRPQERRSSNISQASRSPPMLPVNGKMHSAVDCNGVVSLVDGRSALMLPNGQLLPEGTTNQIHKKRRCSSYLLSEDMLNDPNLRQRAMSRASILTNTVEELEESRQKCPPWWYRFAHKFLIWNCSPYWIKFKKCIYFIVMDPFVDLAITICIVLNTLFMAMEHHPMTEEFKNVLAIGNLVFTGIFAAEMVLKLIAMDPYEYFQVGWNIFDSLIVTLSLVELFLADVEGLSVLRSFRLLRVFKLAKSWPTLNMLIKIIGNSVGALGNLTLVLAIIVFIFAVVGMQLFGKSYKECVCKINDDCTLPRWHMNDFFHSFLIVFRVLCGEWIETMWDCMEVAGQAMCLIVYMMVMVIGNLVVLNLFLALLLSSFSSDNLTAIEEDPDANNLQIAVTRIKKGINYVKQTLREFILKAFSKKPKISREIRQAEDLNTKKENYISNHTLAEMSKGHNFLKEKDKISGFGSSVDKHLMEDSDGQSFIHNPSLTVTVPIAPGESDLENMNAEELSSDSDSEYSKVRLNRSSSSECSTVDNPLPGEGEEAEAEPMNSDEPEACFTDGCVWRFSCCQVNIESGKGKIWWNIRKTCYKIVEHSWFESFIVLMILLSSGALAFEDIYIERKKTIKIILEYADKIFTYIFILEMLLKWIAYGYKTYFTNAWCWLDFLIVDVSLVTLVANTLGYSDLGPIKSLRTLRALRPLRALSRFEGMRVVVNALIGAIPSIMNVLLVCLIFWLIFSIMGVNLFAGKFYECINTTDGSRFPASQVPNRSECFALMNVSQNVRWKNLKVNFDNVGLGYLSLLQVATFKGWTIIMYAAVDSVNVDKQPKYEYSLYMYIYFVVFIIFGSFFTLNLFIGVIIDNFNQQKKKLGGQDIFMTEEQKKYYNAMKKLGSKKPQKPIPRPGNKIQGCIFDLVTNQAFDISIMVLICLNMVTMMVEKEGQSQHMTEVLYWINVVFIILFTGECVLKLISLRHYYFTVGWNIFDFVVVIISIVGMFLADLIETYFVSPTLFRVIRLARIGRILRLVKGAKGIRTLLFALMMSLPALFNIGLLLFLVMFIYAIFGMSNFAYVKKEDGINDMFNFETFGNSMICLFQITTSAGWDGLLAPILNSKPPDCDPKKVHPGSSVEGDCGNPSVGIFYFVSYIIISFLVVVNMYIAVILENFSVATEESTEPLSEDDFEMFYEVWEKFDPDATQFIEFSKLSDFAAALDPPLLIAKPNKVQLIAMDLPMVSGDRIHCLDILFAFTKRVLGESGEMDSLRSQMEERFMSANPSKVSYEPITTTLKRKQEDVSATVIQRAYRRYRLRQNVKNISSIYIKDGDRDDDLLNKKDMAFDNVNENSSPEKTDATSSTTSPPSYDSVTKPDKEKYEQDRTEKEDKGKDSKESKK

IC50 [µM]	SMILES
> 20	CCN(CCO)C(=O)c1cc(C(F)(F)F)ccc1Oc1ccc(-c2cccc([C@H](O)CO)n2)cc1 [compound 171, (S)-2-(4-(6-(1,2-dihydroxyethyl)pyridin-2-yl)phenoxy)-N-ethyl-N-(2-hydroxyethyl)-5-(trifluoro-methyl)benzamide]
7.97 ± 1.19	CCN(CCN(C)C)C(=O)c1cc(C(F)(F)F)ccc1Oc1ccc(-c2cccc([C@H](O)CO)n2)cc1 [compound 172, (S)-2-(4-(6-(1,2-dihydroxyethyl)pyridin-2-yl)phenoxy)-N-(2-(dimethyl-amino)ethyl)-N-ethyl-5-(trifluoromethyl)benzamide]
> 20	NC(=O)C1CCCN(C(=O)c2cc(C(F)(F)F)ccc2Oc2ccc(-c3cccc([C@H](O)CO)n3)cc2)C1 (stereo partly drawn) [compound 173, 1-(2-(4-(6-((S)-1,2-dihydroxyethyl)pyridin-2-yl)phenoxy)-5-(trifluoromethyl)benzoyl)piperidine-3-carboxamide]
3.61 ± 0.229	O=C(Nc1nncs1)c1cc(C(F)(F)F)ccc1Oc1ccc(-c2cccc([C@H](O)CO)n2)cc1 [compound 174, (S)-2-(4-(6-(1,2-dihydroxyethyl)pyridin-2-yl)phenoxy)-N-(1,3,4-thiadiazol-2-yl)-5-(trifluoromethyl)-benzamide]
1.31 ± 0.054	O=C(Nc1nccs1)c1cc(C(F)(F)F)ccc1Oc1ccc(-c2cccc([C@H](O)CO)n2)cc1 [compound 175, (S)-2-(4-(6-(1,2-dihydroxyethyl)pyridin-2-yl)phenoxy)-N-(thiazol-2-yl)-5-(trifluoromethyl)benzamide]
> 20	O=C(NCc1nnn[nH]1)c1cc(C(F)(F)F)ccc1Oc1ccc(-c2cccc([C@H](O)CO)n2)cc1 [compound 176, (S)-N-((1H-tetrazol-5-yl)methyl)-2-(4-(6-(1,2-dihydroxyethyl)-pyridin-2-yl)phenoxy)-5-(trifluoromethyl)benzamide]
